# Calls of active or inactive are those of the source. No cut-off for these calls is given here.
# Experiments:
# [1] = target: T1, Cannabinoid receptor 2 (Homo sapiens, UniProt P34972); assay: Agonist activity at human recombinant cannabinoid CB2 receptor expressed in MMY23 Saccharomyces cerevisiae assessed as degradation of FDGlu to fluorescein after 24 hrs by spectrofluorimetry relative to HU210; format: functional
# [2] = species on record: Homo sapiens; assay: Selectivity ratio of EC50 for human recombinant cannabinoid CB1 receptor to EC50 for human recombinant cannabinoid CB2 receptor
# [3] = target: T2, Cannabinoid receptor 1 (Homo sapiens, UniProt P21554); assay: Agonist activity at human recombinant cannabinoid CB1 receptor expressed in MMY23 Saccharomyces cerevisiae assessed as degradation of FDGlu to fluorescein after 24 hrs by spectrofluorimetry; format: functional
# [4] = target: T2, Cannabinoid receptor 1; assay: Agonist activity at human recombinant cannabinoid CB1 receptor expressed in MMY23 Saccharomyces cerevisiae assessed as degradation of FDGlu to fluorescein after 24 hrs by spectrofluorimetry relative to HU210; format: functional
# [5] = target: T2, Cannabinoid receptor 1; assay: Agonist activity at human recombinant cannabinoid CB1 receptor expressed in MMY23 Saccharomyces cerevisiae assessed as degradation of FDGlu to fluorescein at 30 uM after 24 hrs by spectrofluorimetry; format: functional
# [6] = target: T1, Cannabinoid receptor 2; assay: Agonist activity at human recombinant cannabinoid CB2 receptor expressed in MMY23 Saccharomyces cerevisiae assessed as degradation of FDGlu to fluorescein after 24 hrs by spectrofluorimetry; format: functional
# [7] = Binding affinity to GABA receptor at 1 uM
# [8] = Binding affinity to central benzodiazepine receptor at 1 uM
# [9] = target: Adenosine receptor A1 (Homo sapiens) (UniProt P30542); assay: Binding affinity to human adenosine A1 receptor at 1 uM
# [10] = Drug level in rat blood at 130 mg/kg, po after 3 hrs; format: ADME, organism-based; parameters: dose 130 mg/kg, route oral; details: read-out: Drug uptake
# [11] = target: Endothelin-1 receptor (Homo sapiens) (UniProt P25101); assay: Binding affinity to human ETA receptor at 1 uM
# [12] = Drug level in rat blood at 130 mg/kg, po after 1 hr; format: ADME, organism-based; parameters: dose 130 mg/kg, route oral; details: read-out: Drug uptake
# [13] = target: Galanin receptor type 2 (Homo sapiens) (UniProt O43603); assay: Binding affinity to human GAL2 receptor at 1 uM
# [14] = target: Substance-K receptor (Homo sapiens) (UniProt P21452); assay: Binding affinity to human NK2 receptor at 1 uM
# [15] = target: B2 bradykinin receptor (Homo sapiens) (UniProt P30411); assay: Binding affinity to human bradykinin B2 receptor at 1 uM
# [16] = test system: Rattus norvegicus; assay: Induction of hypothermia in rat at 130 mg/kg, po after 1 to 3 hrs; format: organism-based; parameters: dose 130 mg/kg, route oral; details: in vivo
# [17] = test system: Rattus norvegicus; assay: Induction of hypothermia in rat at 130 mg/kg, po after 5 hrs; format: organism-based; parameters: dose 130 mg/kg, route oral; details: in vivo
# [18] = target: C-X-C chemokine receptor type 2 (Homo sapiens) (UniProt P25025); assay: Binding affinity to human CXCR2 receptor at 1 uM
# [19] = target: D(2) dopamine receptor (Homo sapiens) (UniProt P14416); assay: Binding affinity to human dopamine D2S receptor at 1 uM
# [20] = target: Cholecystokinin receptor type A (Homo sapiens) (UniProt P32238); assay: Binding affinity to human CCKA receptor at 1 uM
# [21] = target: Beta-1 adrenergic receptor (Homo sapiens) (UniProt P08588); assay: Binding affinity to human beta-1 adrenergic receptor at 1 uM
# [22] = target: Muscarinic acetylcholine receptor M3 (Homo sapiens) (UniProt P20309); assay: Binding affinity to human muscarinic M3 receptor at 1 uM
# [23] = target: Muscarinic acetylcholine receptor M1 (Homo sapiens) (UniProt P11229); assay: Binding affinity to human muscarinic M1 receptor at 1 uM
# [24] = target: Adenosine receptor A3 (Homo sapiens) (UniProt P0DMS8); assay: Binding affinity to human adenosine A3 receptor at 1 uM
# [25] = target: Histamine H1 receptor (Homo sapiens) (UniProt P35367); assay: Binding affinity to human histamine H1 receptor at 1 uM
# [26] = target: Melanocortin receptor 4 (Homo sapiens) (UniProt P32245); assay: Binding affinity to human MC4 receptor at 1 uM
# [27] = target: Alpha-2A adrenergic receptor (Homo sapiens) (UniProt P08913); assay: Binding affinity to adrenergic alpha2 receptor at 1 uM
# [28] = target: Type-1 angiotensin II receptor (Homo sapiens) (UniProt P30556); assay: Binding affinity to human AT1 receptor at 1 uM
# [29] = target: Histamine H2 receptor (Homo sapiens) (UniProt P25021); assay: Binding affinity to human histamine H2 receptor at 1 uM
# [30] = target: Adenosine receptor A2a (Homo sapiens) (UniProt P29274); assay: Binding affinity to human adenosine A2A receptor at 1 uM
# [31] = target: D(1A) dopamine receptor (Homo sapiens) (UniProt P21728); assay: Binding affinity to human dopamine D1 receptor at 1 uM
# [32] = Binding affinity to adrenergic alpha1 receptor at 1 uM
# [33] = target: Cannabinoid receptor 1 (Rattus norvegicus) (UniProt P20272); assay: Agonist activity at cannabinoid CB1 receptor at rat cerebellum by GTPgammaS binding assay relative to HU210; format: functional
# [34] = target: Melatonin receptor type 1A (Homo sapiens) (UniProt P48039); assay: Binding affinity to human ML1 receptor at 1 uM
# [35] = target: Muscarinic acetylcholine receptor M4 (Homo sapiens) (UniProt P08173); assay: Binding affinity to human muscarinic M4 receptor at 1 uM
# [36] = target: Cannabinoid receptor 1 (Rattus norvegicus, UniProt P20272); assay: Agonist activity at cannabinoid CB1 receptor at rat cerebellum by GTPgammaS binding assay; format: functional, tissue-based
# [37] = target: Muscarinic acetylcholine receptor M2 (Homo sapiens) (UniProt P08172); assay: Binding affinity to human muscarinic M2 receptor at 1 uM
# [38] = Solubility in simulated intestinal fluid at pH 5; format: physicochemical
# [39] = target: Cytochrome P450 3A4 (Homo sapiens, UniProt P08684); assay: Inhibition of CYP3A4; format: ADME
# [40] = target: Cytochrome P450 2C9 (Homo sapiens, UniProt P11712); assay: Inhibition of CYP2C9; format: ADME
# [41] = target: Cytochrome P450 2D6 (Homo sapiens, UniProt P10635); assay: Inhibition of CYP2D6; format: ADME
# [42] = target: Cytochrome P450 1A2 (Homo sapiens, UniProt P05177); assay: Inhibition of CYP1A2; format: ADME
# [43] = target: Cytochrome P450 2C19 (Homo sapiens, UniProt P33261); assay: Inhibition of CYP2C19; format: ADME
# [44] = test system: Rattus norvegicus; assay: Antihyperalgesic activity in po dosed complete Freund's adjuvant rat model of inflammatory pain assessed as reduction of hypersensitivity administered as single dose; format: functional
# [45] = test system: Rattus norvegicus; assay: Analgesic activity in rat joint model of chronic pain at 1 to 10 mg/kg, po BID for 5 days; format: functional, organism-based
# [46] = Efflux ratio of apparent permeability […] side of MDR1-expressing MDCK2 cells after 60 mins by liquid scintillation counting; format: ADME, cell-based, Canis lupus familiaris; details: dog, mdck-ii, 1 h
# [47] = Intrinsic clearance in rat liver microsomes; format: ADME, Microsome
# [48] = Ratio of drug level in brain to blood in mouse; format: ADME, tissue-based
# [49] = Dissociation constant, pKa of the compound; format: physicochemical
# [50] = Intrinsic clearance in human liver microsomes; format: ADME, Microsome
# [51] = test system: Rattus norvegicus; assay: Analgesic activity in rat joint model of chronic pain at 5 mg/kg, po BID for 5 days; format: functional, organism-based; parameters: dose 5 mg/kg
# T1 sequence (P34972 whole entry): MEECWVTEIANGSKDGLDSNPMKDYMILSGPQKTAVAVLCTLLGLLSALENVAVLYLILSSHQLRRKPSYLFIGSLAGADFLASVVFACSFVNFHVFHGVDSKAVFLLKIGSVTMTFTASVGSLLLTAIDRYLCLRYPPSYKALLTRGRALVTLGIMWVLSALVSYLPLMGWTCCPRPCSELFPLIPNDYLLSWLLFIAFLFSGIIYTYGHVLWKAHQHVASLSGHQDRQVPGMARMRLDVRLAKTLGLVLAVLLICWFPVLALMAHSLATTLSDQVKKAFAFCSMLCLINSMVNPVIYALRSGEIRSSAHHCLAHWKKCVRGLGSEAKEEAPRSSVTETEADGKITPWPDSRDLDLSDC
# T2 sequence (P21554 whole entry): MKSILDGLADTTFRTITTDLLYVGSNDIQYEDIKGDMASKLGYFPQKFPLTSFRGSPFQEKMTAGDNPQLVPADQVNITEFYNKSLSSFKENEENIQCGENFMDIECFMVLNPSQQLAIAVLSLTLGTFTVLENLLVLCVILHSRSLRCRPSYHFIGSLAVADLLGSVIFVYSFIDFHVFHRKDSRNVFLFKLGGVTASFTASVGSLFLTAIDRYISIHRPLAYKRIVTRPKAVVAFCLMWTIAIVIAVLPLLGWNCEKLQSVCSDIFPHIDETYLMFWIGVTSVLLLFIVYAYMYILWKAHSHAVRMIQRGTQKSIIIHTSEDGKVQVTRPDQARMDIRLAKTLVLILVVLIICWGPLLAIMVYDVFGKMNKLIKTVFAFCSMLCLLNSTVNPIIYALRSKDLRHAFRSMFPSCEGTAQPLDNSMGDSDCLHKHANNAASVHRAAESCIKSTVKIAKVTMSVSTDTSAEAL
# Chain of Cytochrome P450 2D6 (P10635 whole entry): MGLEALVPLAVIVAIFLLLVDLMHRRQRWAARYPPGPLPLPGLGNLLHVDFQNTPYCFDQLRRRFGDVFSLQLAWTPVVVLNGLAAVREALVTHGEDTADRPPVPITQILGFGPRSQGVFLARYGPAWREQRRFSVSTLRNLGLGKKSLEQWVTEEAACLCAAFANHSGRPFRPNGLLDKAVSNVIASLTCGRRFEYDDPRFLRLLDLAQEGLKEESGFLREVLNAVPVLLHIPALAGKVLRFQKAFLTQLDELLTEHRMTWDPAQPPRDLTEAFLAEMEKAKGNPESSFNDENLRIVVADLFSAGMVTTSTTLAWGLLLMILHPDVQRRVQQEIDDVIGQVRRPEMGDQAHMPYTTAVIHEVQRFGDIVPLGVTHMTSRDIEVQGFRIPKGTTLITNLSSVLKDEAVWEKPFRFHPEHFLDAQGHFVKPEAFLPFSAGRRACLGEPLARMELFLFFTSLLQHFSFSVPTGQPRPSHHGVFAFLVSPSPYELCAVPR
# Chain of Muscarinic acetylcholine receptor M2 (Homo sapiens) (P08172 whole entry): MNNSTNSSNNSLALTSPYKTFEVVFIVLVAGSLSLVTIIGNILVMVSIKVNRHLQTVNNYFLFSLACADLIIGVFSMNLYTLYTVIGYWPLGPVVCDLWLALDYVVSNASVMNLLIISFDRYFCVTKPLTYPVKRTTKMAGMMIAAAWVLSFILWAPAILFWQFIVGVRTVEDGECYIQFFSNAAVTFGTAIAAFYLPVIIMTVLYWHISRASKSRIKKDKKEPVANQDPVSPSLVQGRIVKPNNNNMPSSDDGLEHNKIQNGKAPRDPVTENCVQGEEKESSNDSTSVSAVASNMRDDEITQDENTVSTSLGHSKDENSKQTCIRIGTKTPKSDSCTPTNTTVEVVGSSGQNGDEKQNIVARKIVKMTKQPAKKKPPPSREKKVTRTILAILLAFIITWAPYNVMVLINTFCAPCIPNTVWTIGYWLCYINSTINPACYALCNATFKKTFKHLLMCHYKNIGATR
# Chain of Adenosine receptor A2a (Homo sapiens) (P29274 whole entry): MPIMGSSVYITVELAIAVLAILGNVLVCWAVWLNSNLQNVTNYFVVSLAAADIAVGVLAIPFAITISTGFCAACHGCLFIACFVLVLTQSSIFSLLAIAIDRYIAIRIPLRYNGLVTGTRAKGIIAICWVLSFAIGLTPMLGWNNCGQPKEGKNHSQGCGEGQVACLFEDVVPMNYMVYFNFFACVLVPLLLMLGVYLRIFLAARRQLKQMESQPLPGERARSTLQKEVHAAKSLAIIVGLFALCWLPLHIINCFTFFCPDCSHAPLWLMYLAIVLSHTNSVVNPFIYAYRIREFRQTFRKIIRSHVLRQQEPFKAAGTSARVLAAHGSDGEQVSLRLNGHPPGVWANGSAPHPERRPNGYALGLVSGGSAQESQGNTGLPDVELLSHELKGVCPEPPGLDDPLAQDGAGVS
# Chain of Muscarinic acetylcholine receptor M1 (Homo sapiens) (P11229 whole entry): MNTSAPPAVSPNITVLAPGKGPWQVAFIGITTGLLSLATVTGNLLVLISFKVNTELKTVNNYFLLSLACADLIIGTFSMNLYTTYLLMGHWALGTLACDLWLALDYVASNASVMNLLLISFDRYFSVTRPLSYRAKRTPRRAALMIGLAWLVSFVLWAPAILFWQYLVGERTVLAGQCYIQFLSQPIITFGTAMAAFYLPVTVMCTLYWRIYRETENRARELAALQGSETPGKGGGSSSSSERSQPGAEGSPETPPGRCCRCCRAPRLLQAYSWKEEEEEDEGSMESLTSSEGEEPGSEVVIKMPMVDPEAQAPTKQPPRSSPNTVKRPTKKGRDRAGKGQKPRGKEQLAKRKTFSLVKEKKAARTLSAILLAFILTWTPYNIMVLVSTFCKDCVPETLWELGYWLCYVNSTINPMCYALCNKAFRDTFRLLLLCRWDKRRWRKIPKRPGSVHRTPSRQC
# Chain of Adenosine receptor A1 (Homo sapiens) (P30542 whole entry): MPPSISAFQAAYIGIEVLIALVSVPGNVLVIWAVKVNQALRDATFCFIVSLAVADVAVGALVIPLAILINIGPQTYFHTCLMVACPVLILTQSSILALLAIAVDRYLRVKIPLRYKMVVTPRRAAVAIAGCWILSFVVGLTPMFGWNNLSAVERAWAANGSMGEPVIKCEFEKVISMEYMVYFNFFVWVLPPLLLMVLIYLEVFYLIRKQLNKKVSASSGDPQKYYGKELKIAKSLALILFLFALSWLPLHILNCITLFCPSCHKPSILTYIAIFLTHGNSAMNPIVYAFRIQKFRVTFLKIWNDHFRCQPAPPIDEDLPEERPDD
# Chain of Melatonin receptor type 1A (Homo sapiens) (P48039 whole entry): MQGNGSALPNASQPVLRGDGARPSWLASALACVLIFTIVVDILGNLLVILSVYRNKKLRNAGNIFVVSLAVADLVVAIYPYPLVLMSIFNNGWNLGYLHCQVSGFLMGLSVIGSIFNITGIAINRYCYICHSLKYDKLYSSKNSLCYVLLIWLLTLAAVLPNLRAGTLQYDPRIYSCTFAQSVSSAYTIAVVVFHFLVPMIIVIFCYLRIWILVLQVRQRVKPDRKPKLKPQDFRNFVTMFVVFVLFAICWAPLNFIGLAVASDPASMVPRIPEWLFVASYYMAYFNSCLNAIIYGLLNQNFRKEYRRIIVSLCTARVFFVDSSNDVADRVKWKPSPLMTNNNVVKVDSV
# Chain of B2 bradykinin receptor (Homo sapiens) (P30411 whole entry): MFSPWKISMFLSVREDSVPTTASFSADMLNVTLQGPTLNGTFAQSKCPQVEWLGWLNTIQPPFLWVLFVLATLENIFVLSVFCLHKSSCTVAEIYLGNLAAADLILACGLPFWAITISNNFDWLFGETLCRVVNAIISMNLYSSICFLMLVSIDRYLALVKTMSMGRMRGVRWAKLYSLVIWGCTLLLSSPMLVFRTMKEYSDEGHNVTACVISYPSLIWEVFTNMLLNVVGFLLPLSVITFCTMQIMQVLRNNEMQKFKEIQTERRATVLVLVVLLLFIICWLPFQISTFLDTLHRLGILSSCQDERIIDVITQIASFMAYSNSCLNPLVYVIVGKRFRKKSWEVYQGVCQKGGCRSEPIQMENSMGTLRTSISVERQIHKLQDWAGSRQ
# Chain of Type-1 angiotensin II receptor (Homo sapiens) (P30556 whole entry): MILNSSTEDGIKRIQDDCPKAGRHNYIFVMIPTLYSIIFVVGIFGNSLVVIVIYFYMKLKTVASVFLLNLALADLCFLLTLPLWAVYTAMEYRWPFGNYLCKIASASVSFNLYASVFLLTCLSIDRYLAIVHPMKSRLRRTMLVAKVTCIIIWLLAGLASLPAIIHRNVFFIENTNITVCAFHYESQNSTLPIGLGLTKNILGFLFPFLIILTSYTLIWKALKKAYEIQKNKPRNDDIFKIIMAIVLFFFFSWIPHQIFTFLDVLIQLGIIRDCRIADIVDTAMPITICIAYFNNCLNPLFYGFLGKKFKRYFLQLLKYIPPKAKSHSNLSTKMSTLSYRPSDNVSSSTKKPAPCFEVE
# Chain of Substance-K receptor (Homo sapiens) (P21452 whole entry): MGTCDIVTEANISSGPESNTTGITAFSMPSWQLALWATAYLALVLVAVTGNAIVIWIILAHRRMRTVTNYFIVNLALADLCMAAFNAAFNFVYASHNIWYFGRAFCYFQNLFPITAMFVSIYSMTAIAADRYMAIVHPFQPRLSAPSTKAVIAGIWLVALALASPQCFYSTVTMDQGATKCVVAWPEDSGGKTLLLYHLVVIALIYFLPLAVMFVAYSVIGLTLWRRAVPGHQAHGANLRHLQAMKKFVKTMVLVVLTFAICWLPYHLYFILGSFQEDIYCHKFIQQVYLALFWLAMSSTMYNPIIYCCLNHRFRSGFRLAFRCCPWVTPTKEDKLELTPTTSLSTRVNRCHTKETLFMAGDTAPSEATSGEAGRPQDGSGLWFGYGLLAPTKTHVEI
# Chain of Histamine H2 receptor (Homo sapiens) (P25021 whole entry): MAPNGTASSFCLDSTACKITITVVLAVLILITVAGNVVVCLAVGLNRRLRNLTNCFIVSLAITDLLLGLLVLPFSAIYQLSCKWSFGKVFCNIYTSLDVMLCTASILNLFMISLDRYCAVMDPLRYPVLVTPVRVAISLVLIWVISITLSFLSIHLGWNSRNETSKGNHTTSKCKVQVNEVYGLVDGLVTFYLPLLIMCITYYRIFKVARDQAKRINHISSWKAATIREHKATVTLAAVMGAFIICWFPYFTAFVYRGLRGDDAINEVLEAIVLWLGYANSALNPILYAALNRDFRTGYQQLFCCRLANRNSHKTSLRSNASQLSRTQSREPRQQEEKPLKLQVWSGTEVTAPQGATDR
smiles,measurement,setting,value
Cc1c[nH]c2c(Nc3ccccc3Cl)ncc(C(=O)N3CCOCC3)c12,Efficacy,[1],82%
same,Ratio EC50,[2],> 100
same,EC50,[3],15.8 µM
same,Efficacy,[4],56%
same,Activity,[5],inactive
same,EC50,[6],0.123 µM
Cc1c[nH]c2c(Nc3cccc(Cl)c3)ncc(C(=O)N3CCC3)c12,Efficacy,[1],66%
same,EC50,[3],> 30 µM
same,EC50,[6],0.504 µM
Cc1c[nH]c2c(Nc3cccc(Cl)c3)ncc(C(=O)N3CCCC3)c12,Efficacy,[1],68%
same,EC50,[3],> 30 µM
same,EC50,[6],0.153 µM
Cn1ccc2c(Nc3cccc(Cl)c3)ncc(Br)c21,Activity,[7],< 10%
same,Activity,[8],< 10%
same,Activity,[9],< 10%
same,concentration at 3 h,[10],14.7 µM
same,Activity,[11],< 10%
same,concentration at 1 h,[12],10.9 µM
same,Activity,[13],< 10%
same,Activity,[14],< 10%
same,Activity,[15],< 10%
same,Activity,[16],Non-toxic
same,Activity,[17],Toxic
same,Activity,[18],< 10%
same,Activity,[19],< 10%
same,Activity,[20],< 10%
same,Activity,[21],< 10%
same,Activity,[22],< 10%
same,Activity,[23],< 10%
same,Activity,[24],< 10%
same,Activity,[25],< 10%
same,Activity,[26],< 10%
same,Activity,[27],25%
same,Activity,[28],< 10%
same,Activity,[29],< 10%
same,Activity,[30],< 10%
same,Activity,[31],< 10%
same,Activity,[32],< 10%
same,Efficacy,[33],59%
same,Activity,[34],< 10%
same,Activity,[35],< 10%
same,EC50,[36],2.51 µM
same,Activity,[37],< 10%
Cc1c[nH]c2c(Nc3cccc(Cl)c3)ncc(C(=O)NC3CCOCC3)c12,Efficacy,[1],79%
same,EC50,[3],> 30 µM
same,EC50,[6],1.7 µM
Cc1c[nH]c2c(Nc3cccc(Cl)c3)ncc(C(=O)N3CCCCCC3)c12,Efficacy,[1],76%
same,EC50,[3],> 30 µM
same,EC50,[6],0.107 µM
Cc1c[nH]c2c(Nc3ccccc3OC(C)C)ncc(C(=O)N3CCOCC3)c12,Efficacy,[1],73%
same,Ratio EC50,[2],> 100
same,EC50,[3],> 30 µM
same,Activity,[5],inactive
same,EC50,[6],0.188 µM
Cc1c[nH]c2c(Nc3cccc(Cl)c3)ncc(C(=O)N3CCOCC3)c12,solubility,[38],160 µg/mL
same,Efficacy,[1],82%
same,Ratio EC50,[2],1000
same,IC50,[39],48 µM
same,EC50,[3],10 µM
same,IC50,[40],4.7 µM
same,IC50,[41],14 µM
same,IC50,[42],28 µM
same,IC50,[43],29 µM
same,ED50,[44],0.12 mg/kg
same,Activity,[45],inactive
same,Ratio,[46],74
same,CLint scaled,[47],1.4 mL/min/kg
same,Kp,[48],< 0.05
same,pKa,[49],5.8
same,CLint scaled,[50],1.6 mL/min/kg
same,Efficacy,[4],74%
same,EC50,[6],0.011 µM
Cc1c[nH]c2c(Nc3cccc(Cl)c3)ncc(C(=O)NCC3CCOCC3)c12,Efficacy,[1],95%
same,EC50,[3],> 30 µM
same,EC50,[6],0.265 µM
CCC(CC)Nc1ncc(C(=O)N2CCOCC2)c2c(C)c[nH]c12,Efficacy,[1],59%
same,EC50,[3],> 30 µM
same,EC50,[6],4.67 µM
Cc1c[nH]c2c(Nc3cccc(Cl)c3)ncc(C(=O)NCc3ccc(F)cc3)c12,Efficacy,[1],58%
same,EC50,[3],> 30 µM
same,EC50,[6],0.145 µM
COc1cccc(Nc2ncc(C(=O)N3CCOCC3)c3c(C)c[nH]c23)c1,Efficacy,[1],83%
same,EC50,[3],25.1 µM
same,Efficacy,[4],69%
same,Activity,[5],inactive
same,EC50,[6],0.048 µM
Cc1c[nH]c2c(Nc3cccc(C(F)(F)F)c3)ncc(C(=O)N3CCOCC3)c12,Efficacy,[1],86%
same,Ratio EC50,[2],> 100
same,EC50,[3],> 30 µM
same,Activity,[5],inactive
same,EC50,[6],0.015 µM
CS(=O)(=O)c1ccc(C2=C(c3ccccc3)C(=O)OC2)cc1 [ROFECOXIB],Activity,[51],Active
same,Ratio,[46],74
CCCCCCC(C)(C)c1cc(O)c2c(c1)OC(C)(C)[C@@H]1CC=C(CO)C[C@@H]21,EC50,[3],0.04 µM
Cc1cn(C)c2c(Nc3cccc(Cl)c3)ncc(C(=O)N3CCOCC3)c12,Efficacy,[1],47%
same,EC50,[3],10 µM
same,Efficacy,[4],45%
same,EC50,[6],0.654 µM
Cc1c[nH]c2c(NC3CCOCC3)ncc(C(=O)N3CCOCC3)c12,Efficacy,[1],84%
same,EC50,[3],> 30 µM
same,EC50,[6],3.3 µM
Cc1c[nH]c2c(Nc3cccc(Cl)c3)ncc(C(=O)N3CCCCC3)c12,Efficacy,[1],73%
same,EC50,[3],4 µM
same,Efficacy,[4],32%
same,EC50,[6],0.014 µM
COc1ccccc1Nc1ncc(C(=O)N2CCOCC2)c2c(C)c[nH]c12,Efficacy,[1],72%
same,Ratio EC50,[2],> 100
same,EC50,[3],> 10 µM
same,Activity,[5],inactive
same,EC50,[6],0.349 µM
O=C(NCC1CCOCC1)c1cnc(Nc2ccc(Cl)cc2Cl)nc1C(F)(F)F [GW842166X],solubility,[38],10 µg/mL
same,EC50,[3],> 30 µM
Cc1c[nH]c2c(Nc3cccc(Br)c3)ncc(C(=O)N3CCOCC3)c12,Efficacy,[1],78%
same,EC50,[3],6.3 µM
same,Efficacy,[4],43%
same,EC50,[6],0.01 µM

# From ChEMBL document CHEMBL1156052, “Discovery of 1-[4-(3-chlorophenylamino)-1-methyl-1H-pyrrolo[3,2-c]pyridin-7-yl]-1-morpholin-4-ylmethanone (GSK554418A), a brain penetrant 5-azaindole CB2 agonist for the treatment of chronic pain” (J Med Chem, 2009)
